Laboratory results: patent US10695450B2, “Synthesis of a radioactive agent composition” (LABORATOIRES CYCLOPHARMA, priority 2016, dated 2020)

Test: Radiochemical purity of [^18F]FES stock solution during storage (radiolysis stability)
Assay type: physicochemical
Conditions: for Radio-chemical purity after 10 h storage: sodium ascorbate in purification and formulation (0.45% m/v)
Method: Radiochemical purity is the ratio of the radioactivity of the radionuclide agent under chemical form on the total radioactivity of this same radionuclide. Radiochemical purity of the [^18F]FES stock solution is measured. […]

`C[C@]12CC[C@@H]3c4ccc(O)cc4CC[C@H]3C1C[C@@H]([18F])[C@@H]2O` (stereo partly drawn) [[^18F]FES, 16α-[^18F]fluoro-17β-estradiol] gave a Radio-chemical purity (Example 2: sodium ascorbate during purification only, none in final solution, 250 GBq 18-Fluorine, time of storage 0 hours (end of synthesis)) of 99.3%, a Radio-chemical purity (Example 2: sodium ascorbate during purification only, none in final solution, 250 GBq 18-Fluorine, time of storage 4 hours) of 95% and a Radio-chemical purity (Example 2: sodium ascorbate during purification only, none in final solution, 250 GBq 18-Fluorine, time of storage 8 hours) of 93%. For the same compound, the Radio-chemical purity (Example 2: sodium ascorbate during purification only, none in final solution, 250 GBq 18-Fluorine, time of storage 10 hours) was 92%, the “Radio-chemical purity after 10 h storage” value (Example 3, batch number 1, 79 GBq 18-Fluorine) was 98.0% and the “Radio-chemical purity after 10 h storage” value (Example 3, batch number 2, 99 GBq 18-Fluorine) was 99.0%. The “Radio-chemical purity after 10 h storage” value (Example 3, batch number 3, 164 GBq 18-Fluorine) was 96.7%, the “Radio-chemical purity after 10 h storage” value (Example 3, batch number 4, 195 GBq 18-Fluorine) was 97.1% and the Radio-chemical purity (Example 4: synthesis in the presence of sodium ascorbate, 164 GBq 18-Fluorine, time of storage 0 hours (end of synthesis)) was 98.0%. For the same compound, the Radio-chemical purity (Example 4: synthesis in the presence of sodium ascorbate, 164 GBq 18-Fluorine, time of storage 5 hours) was 96.8%, the Radio-chemical purity (Example 4: synthesis in the presence of sodium ascorbate, 164 GBq 18-Fluorine, time of storage 10 hours) was 96.7% and the “Decrease of radiochemical purity after 10 hours of storage” value (synthesized in the presence of sodium ascorbate (Example 4, Table 4)) was 1.3%. For the same compound, the “Decrease of radiochemical purity after 10 hours of storage” value (synthesized without antioxidant (Example 2, Table 2)) was 7.3%.
